Patent US20240174638A1, “HETEROARYL DERIVATIVES AS APELIN RECEPTOR AGONISTS” (RESEARCH TRIANGLE INSTITUTE, priority 2021, published 2024)

Legend:
in vitro = conditions: mouse, pH 7.4
[1] = test system: BLEO-induced lung fibrosis in male C57BL/6 mice; test: Chronic (21-day) bleomycin-induced lung fibrosis model, prophylactic (Px) and therapeutic (Tx) arms; type: in vivo, mouse; conditions: for 21-day survival rate: BLEO-instilled mice
[2] = relative to Vehicle-treated BLEO-instilled controls

Structure (SMILES): O=C(O)C[C@H](CCN1CCCC(F)(F)C1)NC(=O)c1cc(-c2ccccc2C(F)(F)F)n(-c2nccs2)n1 [Example 22, (3S)-5-(3,3-difluoropiperidin-1-yl)-3-{[1-(1,3-thiazol-2-yl)-5-[2-(trifluoromethyl)phenyl]-1H-pyrazol-3-yl]formamido}pentanoic acid]
- recovery at 6 h, 1 μM (in vitro): 92.4%
- composite Tissue Collagen Fraction (TCF) ([1]; 15 mpk/day Px EXAMPLE 22, Vehicle 5.58±0.34%): 4.51±0.31%
- 21-day survival rate ([1]; 15 mpk Px EXAMPLE 22 (p.o. BID)): 91%
- 21-day survival rate ([1]; 30 mpk Px EXAMPLE 22 (p.o. BID)): 91%
- 21-day survival rate ([1]; 60 mpk Px EXAMPLE 22 (p.o. BID)): 92%
- 21-day survival rate ([1]; Tx EXAMPLE 22 60 mpk (p.o. BID, from 5 days post-BLEO)): 100%
- ΔBW ([1]; D0-D21, relative to Vehicle-treated BLEO-instilled controls): Neither EXAMPLE 22 nor PIRF affected
- end-point readouts for fibrosis, overall ([1]; overall conclusion of the study): positive impact on one or more end-point readouts
- LW indexed to tibia length (LW:TL) [1, 2]: Neither EXAMPLE 22 nor PIRF affected
- endpoint lung OH-P content [1, 2]: Neither EXAMPLE 22 nor PIRF affected
- endpoint lung weight (LW) [1, 2]: Neither EXAMPLE 22 nor PIRF affected
- final BW [1, 2]: Neither EXAMPLE 22 nor PIRF affected
- serial BW [1, 2]: Neither EXAMPLE 22 nor PIRF affected
